From ChEMBL document CHEMBL1141867, “A small library of trisubstituted pyrimidines as antimalarial and antitubercular agents” (2005)
≈ marks a conversion by molar mass, not a printed value.

What was measured:
[1] = test system: Mycobacterium tuberculosis; assay: Antitubercular activity against Mycobacterium tuberculosis H37Ra; assay type: functional
Plasmodium falciparum = assay: Antimalarial activity against Plasmodium falciparum NF54; assay type: functional; settings: NF-54

Row | SMILES | MIC [1] | MIC (Plasmodium falciparum)
1 | COc1ccc(OC)c(-c2cc(-c3ccc(O)cc3)nc(NCCCn3ccnc3)n2)c1 | 12.5 µg/mL (≈ 29 µM) | 0.25 µg/mL (≈ 0.579 µM)
2 | CCN(CC)CCCC(C)Nc1nc(-c2ccc(C)cc2)cc(-c2ccc(O)cc2)n1 (configuration not stated) |  | 50 µg/mL (≈ 119 µM)
3 | Cc1ccc(-c2cc(-c3ccc(O)cc3)nc(NCCCn3ccnc3)n2)cc1 |  | 2 µg/mL (≈ 5.19 µM)
4 | Oc1ccc(-c2cc(-c3ccccc3)nc(NCCCN3CCOCC3)n2)cc1 | 12.5 µg/mL (≈ 32 µM) | 2 µg/mL (≈ 5.12 µM)
5 | Cc1ccc(-c2cc(-c3ccc(O)cc3)nc(NCCCN3CCOCC3)n2)cc1 |  | 2 µg/mL (≈ 4.94 µM)
6 | COc1ccc(-c2cc(-c3ccc(O)cc3)nc(N3CCOCC3)n2)cc1 |  | 1 µg/mL (≈ 2.75 µM)
7 | COc1ccc(OC)c(-c2cc(-c3ccc(O)cc3)nc(N3CCOCC3)n2)c1 |  | 0.5 µg/mL (≈ 1.27 µM)
8 | CCN(CC)CCCC(C)Nc1nc(-c2ccc(O)cc2)cc(-c2ccc(OC)c(OC)c2)n1 (configuration not stated) | 12.5 µg/mL (≈ 26.9 µM) | 2 µg/mL (≈ 4.3 µM)
9 | CCN(CC)CCCC(C)Nc1nc(-c2ccc(O)cc2)cc(-c2ccc(OC)cc2)n1 (configuration not stated) | 12.5 µg/mL (≈ 28.8 µM) | 10 µg/mL (≈ 23 µM)
10 | Cc1ccc(-c2cc(-c3ccc(O)cc3)nc(N3CCOCC3)n2)cc1 |  | 2 µg/mL (≈ 5.76 µM)
11 | CCN(CC)CCCC(C)Nc1nc(-c2ccc(O)cc2)cc(-c2cc(OC)ccc2OC)n1 (configuration not stated) | 12.5 µg/mL (≈ 26.9 µM) | 10 µg/mL (≈ 21.5 µM)
12 | COc1ccc(-c2cc(-c3ccc(O)cc3)nc(NCCCn3ccnc3)n2)cc1OC | 12.5 µg/mL (≈ 29 µM) | 0.25 µg/mL (≈ 0.579 µM)
13 | COc1ccc(-c2cc(-c3ccc(O)cc3)nc(N3CCOCC3)n2)cc1OC |  | 0.5 µg/mL (≈ 1.27 µM)
14 | CCN(CC)CCCC(C)Nc1nc(-c2ccccc2)cc(-c2ccc(O)cc2)n1 (configuration not stated) | 25 µg/mL (≈ 61.8 µM) | 10 µg/mL (≈ 24.7 µM)
15 | Oc1ccc(-c2cc(-c3ccccc3)nc(NCCCn3ccnc3)n2)cc1 | 25 µg/mL (≈ 67.3 µM) | 0.5 µg/mL (≈ 1.35 µM)
16 | COc1ccc(-c2cc(-c3ccc(O)cc3)nc(NCCCN3CCOCC3)n2)cc1 | 12.5 µg/mL (≈ 29.7 µM) | 1 µg/mL (≈ 2.38 µM)
17 | Oc1ccc(-c2cc(-c3ccccc3)nc(N3CCOCC3)n2)cc1 |  | 2 µg/mL (≈ 6 µM)
18 | COc1ccc(OC)c(-c2cc(-c3ccc(O)cc3)nc(NCCCN3CCOCC3)n2)c1 | 25 µg/mL (≈ 55.5 µM) | 0.5 µg/mL (≈ 1.11 µM)
19 | COc1ccc(-c2cc(-c3ccc(O)cc3)nc(NCCCN3CCOCC3)n2)cc1OC | 25 µg/mL (≈ 55.5 µM) | 0.5 µg/mL (≈ 1.11 µM)
20 | COc1ccc(-c2cc(-c3ccc(O)cc3)nc(NCCCn3ccnc3)n2)cc1 | 12.5 µg/mL (≈ 31.1 µM) | 1 µg/mL (≈ 2.49 µM)
